Results published in patent US10770169B2, “Method of providing a treatment to a subject based on a dynamic pathway map” (THE REGENTS OF THE UNIVERSITY OF CALIFORNIA, priority 2010, dated 2020).
Like-named read-outs stand apart in the source and are kept apart here.

Columns and labels:
Format in all cases: cell-based, human
[1] = system: luminal, basal, claudin-low and ERBB2AMP breast cancer cell lines; experiment: Associations of clinically relevant subtypes and response (non-parametric ANOVA or t-test on GI50 ranks)
Method in brief: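 Significance was set at FDR p<0.20 after combining p-values across three test sets. Subtype–response associations came from rank-based non-parametric ANOVA or t-tests on GI50. For three-class comparisons, post-hoc tests of each group against the rest identified the most sensitive group, with FDR correction.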

[2] = system: panel of 55 breast cancer cell lines; experiment: Cell growth inhibition assay (Cell Titer Glo, 72 h, 9 doses; GI50, TGI, LC50); settings: Homo sapiens, read-out: GI50 (converted)
[3] = system: breast cancer cell lines with aberrant vs normal copy number; experiment: Association of recurrent copy number changes and response (t-test on GI50); settings: FDR p<0.2
Text: We used a t-test to assess the association between recurrent copy number changes (at 8q24 (MYC), 11q13 (CCND1), 20q13 (STK15/AURKA)) and drug sensitivity. We combined into a single group cell lines with low or no amplification and compared them to cell lines with high amplification. […] Cell lines for which the GI50 was equal to the maximum concentration tested were omitted from analysis. We omitted compounds where any group had fewer than five samples.

C/C(=C\c1csc(C)n1)[C@@H]1C[C@@H]2O[C@]2(C)CCC[C@H](C)[C@H](O)[C@@H](C)C(=O)C(C)(C)[C@@H](O)CC(=O)N1 [Ixabepilone]
subtype-specific response (sensitivity by transcriptional subtype) ([1]; GI50 across subtypes): more active against basal and claudin-low cell lines
Subtype specificity ([1]; Table 6, most sensitive subtype, FDR p<0.20): Basal + Claudin-low
GI50 ([2]; 600MPE cell line, censored GI50 values): 5250 nM
GI50 ([2]; AU565, AU565 cell line, censored GI50 values): 4.27 nM
GI50 ([2]; AU565, cell line AU565): 4.27 nM
GI50 ([2]; BT-20, BT20 cell line, censored GI50 values): 8.13 nM
GI50 ([2]; BT-20, cell line BT20): 8.13 nM
GI50 ([2]; BT-474, BT474 cell line, censored GI50 values): 8.32 nM
GI50 ([2]; BT-474, cell line BT474): 8.32 nM
GI50 ([2]; BT-483, BT483 cell line, censored GI50 values): 5370 nM
GI50 ([2]; BT-483, cell line BT483): 5370 nM
GI50 ([2]; BT-549, BT549 cell line, censored GI50 values): 6.03 nM
GI50 ([2]; BT-549, cell line BT549): 6.03 nM
GI50 ([2]; CAMA-1, CAMA1 cell line, censored GI50 values): 1 nM
GI50 ([2]; CAMA-1, cell line CAMA1): 1 nM
GI50 ([2]; HCC38, HCC38 cell line, censored GI50 values): 2.82 nM
GI50 ([2]; HCC38, cell line HCC38): 2.82 nM
GI50 ([2]; HCC70, HCC70 cell line, censored GI50 values): 1.41 nM
GI50 ([2]; HCC70, cell line HCC70): 1.41 nM
GI50 ([2]; HCC202, HCC202 cell line, censored GI50 values): 20000 nM
GI50 ([2]; HCC202, cell line HCC202): 20000 nM
GI50 ([2]; HCC1143, HCC1143 cell line, censored GI50 values): 9.77 nM
GI50 ([2]; HCC1143, cell line HCC1143): 9.77 nM
GI50 ([2]; HCC1187, HCC1187 cell line, censored GI50 values): 2.19 nM
GI50 ([2]; HCC1187, cell line HCC1187): 2.19 nM
GI50 ([2]; HCC1395, HCC1395 cell line, censored GI50 values): 12 nM
GI50 ([2]; HCC1395, cell line HCC1395): 12 nM
GI50 ([2]; HCC1419, HCC1419 cell line, censored GI50 values): 11000 nM
GI50 ([2]; HCC1419, cell line HCC1419): 11000 nM
GI50 ([2]; HCC1428, HCC1428 cell line, censored GI50 values): 58.9 nM
GI50 ([2]; HCC1428, cell line HCC1428): 58.9 nM
GI50 ([2]; HCC1500, HCC1500 cell line, censored GI50 values): 3.24 nM
GI50 ([2]; HCC1500, cell line HCC1500): 3.24 nM
GI50 ([2]; HCC1806, HCC1806 cell line, censored GI50 values): 4.9 nM
GI50 ([2]; HCC1806, cell line HCC1806): 4.9 nM
GI50 ([2]; HCC1937, HCC1937 cell line, censored GI50 values): 309 nM
GI50 ([2]; HCC1937, cell line HCC1937): 309 nM
GI50 ([2]; HCC1954, HCC1954 cell line, censored GI50 values): 1.95 nM
GI50 ([2]; HCC1954, cell line HCC1954): 1.95 nM
GI50 ([2]; HCC2185 cell line, censored GI50 values): 9120 nM
GI50 ([2]; HCC3153 cell line, censored GI50 values): 6.17 nM
GI50 ([2]; LY2 cell line, censored GI50 values): 6.03 nM
GI50 ([2]; MCF7, MCF7 cell line, censored GI50 values): 0.363 nM
GI50 ([2]; MCF7, cell line MCF7): 0.363 nM
GI50 ([2]; MDA-MB-134-VI, MDAMB134VI cell line, censored GI50 values): 1.62 nM
GI50 ([2]; MDA-MB-157, MDAMB157 cell line, censored GI50 values): 4.9 nM
GI50 ([2]; MDA-MB-157, cell line MDAMB157): 4.9 nM
GI50 ([2]; MDA-MB-231, MDAMB231 cell line, censored GI50 values): 0.457 nM
GI50 ([2]; MDA-MB-231, cell line MDAMB231): 0.457 nM
GI50 ([2]; MDA-MB-361, MDAMB361 cell line, censored GI50 values): 2.29 nM
GI50 ([2]; MDA-MB-361, cell line MDAMB361): 2.29 nM
GI50 ([2]; MDA-MB-415, MDAMB415 cell line, censored GI50 values): 8.13 nM
GI50 ([2]; MDA-MB-415, cell line MDAMB415): 8.13 nM
GI50 ([2]; MDA-MB-436, MDAMB436 cell line, censored GI50 values): 5.75 nM
GI50 ([2]; MDA-MB-436, cell line MDAMB436): 5.75 nM
GI50 ([2]; MDA-MB-453, MDAMB453 cell line, censored GI50 values): 7.76 nM
GI50 ([2]; MDA-MB-453, cell line MDAMB453): 7.76 nM
GI50 ([2]; MDA-MB-468, MDAMB468 cell line, censored GI50 values): 1.32 nM
GI50 ([2]; MDA-MB-468, cell line MDAMB468): 1.32 nM
GI50 ([2]; SK-BR-3, SKBR3 cell line, censored GI50 values): 10.5 nM
GI50 ([2]; SK-BR-3, cell line SKBR3): 10.5 nM
GI50 ([2]; SUM52PE, SUM52PE cell line, censored GI50 values): 2.95 nM
GI50 ([2]; SUM52PE, cell line SUM52PE): 2.95 nM
GI50 ([2]; SUM149PT, SUM149PT cell line, censored GI50 values): 5.5 nM
GI50 ([2]; SUM149PT, cell line SUM149PT): 5.5 nM
GI50 ([2]; SUM185PE, SUM185PE cell line, censored GI50 values): 8.51 nM
GI50 ([2]; SUM185PE, cell line SUM185PE): 8.51 nM
GI50 ([2]; SUM225CWN, SUM225CWN cell line, censored GI50 values): 20000 nM
GI50 ([2]; SUM225CWN, cell line SUM225CWN): 20000 nM
GI50 ([2]; SUM1315MO2, SUM1315MO2 cell line, censored GI50 values): 6.03 nM
GI50 ([2]; SUM-159-PT, SUM159PT cell line, censored GI50 values): 6.92 nM
GI50 ([2]; SUM-159-PT, cell line SUM159PT): 6.92 nM
GI50 ([2]; T47D, T47D cell line, censored GI50 values): 7.94 nM
GI50 ([2]; T47D, cell line T47D): 7.94 nM
GI50 ([2]; UACC-812, UACC812 cell line, censored GI50 values): 5890 nM
GI50 ([2]; UACC-812, cell line UACC812): 5890 nM
GI50 ([2]; UACC-893, UACC893 cell line, censored GI50 values): 6.31 nM
GI50 ([2]; UACC-893, cell line UACC893): 6.31 nM
GI50 ([2]; ZR-75-1, ZR751 cell line, censored GI50 values): 295 nM
GI50 ([2]; ZR-75-1, cell line ZR751): 295 nM
GI50 ([2]; cell line 600MPE): 5250 nM
GI50 ([2]; cell line HCC2185): 9120 nM
GI50 ([2]; cell line HCC3153): 6.17 nM
GI50 ([2]; cell line LY2): 6.03 nM
GI50 ([2]; cell line MDAMB134V): 1.62 nM
GI50 ([2]; cell line SUM1315MO): 6.03 nM
association of response with homozygous deletion at 9p21 (CDKN2A) [3]: associated with response
